{
  "source": "ChEMBL document CHEMBL4118233",
  "about": "“Rational design of bis-indolylmethane-oxadiazole hybrids as inhibitors of thymidine phosphorylase” (Bioorg Med Chem, 2018)",
  "molecular_target": "Thymidine phosphorylase (Escherichia coli K-12, UniProt P07650)",
  "sequence (P07650 whole entry)": "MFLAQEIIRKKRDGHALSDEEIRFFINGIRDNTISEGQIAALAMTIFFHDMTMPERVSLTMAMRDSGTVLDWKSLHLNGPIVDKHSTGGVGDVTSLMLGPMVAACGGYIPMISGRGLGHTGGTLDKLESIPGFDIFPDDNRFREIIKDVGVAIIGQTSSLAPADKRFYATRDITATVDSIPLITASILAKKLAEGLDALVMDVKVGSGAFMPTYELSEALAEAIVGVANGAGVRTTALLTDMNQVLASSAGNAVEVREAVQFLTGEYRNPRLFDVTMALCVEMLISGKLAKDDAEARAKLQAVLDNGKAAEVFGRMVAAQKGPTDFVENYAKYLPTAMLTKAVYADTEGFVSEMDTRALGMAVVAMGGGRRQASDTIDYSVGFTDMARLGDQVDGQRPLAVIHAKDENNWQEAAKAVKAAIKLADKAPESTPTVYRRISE",
  "assay": "Inhibition of Escherichia coli thymidine phosphorylase pretreated for 10 mins followed by substrate addition measured at 10 mins interval for 30 mins by spectrophotometric method; call rule not given here",
  "data": [
    {"smiles": "Fc1cccc(-c2nnc(-c3ccc(C(c4c[nH]c5ccc(Cl)cc45)c4c[nH]c5ccc(Cl)cc45)cc3)o2)c1", "values": [
      {"measurement": "IC50", "setting": "read-out: IC50", "value": 29.4, "unit": "µM"}
    ]},
    {"smiles": "Clc1ccc2[nH]cc(C(c3ccc(-c4nnc(-c5ccncc5)o4)cc3)c3c[nH]c4ccc(Cl)cc34)c2c1", "values": [
      {"measurement": "IC50", "value": "Not Active"}
    ]},
    {"smiles": "Fc1ccc(-c2nnc(-c3ccc(C(c4c[nH]c5ccc(Cl)cc45)c4c[nH]c5ccc(Cl)cc45)cc3)o2)cc1", "values": [
      {"measurement": "IC50", "setting": "read-out: IC50", "value": 9.1, "unit": "µM"}
    ]},
    {"smiles": "Oc1ccc(-c2nnc(-c3ccc(C(c4c[nH]c5ccc(Cl)cc45)c4c[nH]c5ccc(Cl)cc45)cc3)o2)cc1O", "values": [
      {"measurement": "IC50", "setting": "read-out: IC50", "value": 12.2, "unit": "µM"}
    ]},
    {"smiles": "O=[N+]([O-])c1ccc(-c2nnc(-c3ccc(C(c4c[nH]c5ccc(Cl)cc45)c4c[nH]c5ccc(Cl)cc45)cc3)o2)cc1", "values": [
      {"measurement": "IC50", "value": "Not Active"}
    ]},
    {"smiles": "Oc1cccc(-c2nnc(-c3ccc(C(c4c[nH]c5ccc(Cl)cc45)c4c[nH]c5ccc(Cl)cc45)cc3)o2)c1O", "values": [
      {"measurement": "IC50", "setting": "read-out: IC50", "value": 9.3, "unit": "µM"}
    ]},
    {"smiles": "Cc1ccc(-c2nnc(-c3ccc(C(c4c[nH]c5ccc(Cl)cc45)c4c[nH]c5ccc(Cl)cc45)cc3)o2)cc1", "values": [
      {"measurement": "IC50", "value": "Not Active"}
    ]},
    {"smiles": "Clc1ccc2[nH]cc(C(c3ccc(-c4nnc(-c5ccccn5)o4)cc3)c3c[nH]c4ccc(Cl)cc34)c2c1", "values": [
      {"measurement": "IC50", "setting": "read-out: IC50", "value": 38.4, "unit": "µM"}
    ]},
    {"smiles": "Fc1ccccc1-c1nnc(-c2ccc(C(c3c[nH]c4ccc(Cl)cc34)c3c[nH]c4ccc(Cl)cc34)cc2)o1", "values": [
      {"measurement": "IC50", "setting": "read-out: IC50", "value": 17.3, "unit": "µM"}
    ]},
    {"smiles": "Oc1ccc(-c2nnc(-c3ccc(C(c4c[nH]c5ccc(Cl)cc45)c4c[nH]c5ccc(Cl)cc45)cc3)o2)cc1", "values": [
      {"measurement": "IC50", "setting": "read-out: IC50", "value": 24.5, "unit": "µM"}
    ]},
    {"smiles": "Oc1ccccc1-c1nnc(-c2ccc(C(c3c[nH]c4ccc(Cl)cc34)c3c[nH]c4ccc(Cl)cc34)cc2)o1", "values": [
      {"measurement": "IC50", "setting": "read-out: IC50", "value": 43.5, "unit": "µM"}
    ]},
    {"smiles": "COc1ccc(O)c(-c2nnc(-c3ccc(C(c4c[nH]c5ccc(Cl)cc45)c4c[nH]c5ccc(Cl)cc45)cc3)o2)c1", "values": [
      {"measurement": "IC50", "setting": "read-out: IC50", "value": 45.2, "unit": "µM"}
    ]},
    {"smiles": "Cc1ccccc1-c1nnc(-c2ccc(C(c3c[nH]c4ccc(Cl)cc34)c3c[nH]c4ccc(Cl)cc34)cc2)o1", "values": [
      {"measurement": "IC50", "value": "Not Active"}
    ]},
    {"smiles": "Cc1cccc(-c2nnc(-c3ccc(C(c4c[nH]c5ccc(Cl)cc45)c4c[nH]c5ccc(Cl)cc45)cc3)o2)c1", "values": [
      {"measurement": "IC50", "value": "Not Active"}
    ]},
    {"smiles": "Clc1ccc2[nH]cc(C(c3ccc(-c4nnc(-c5cccnc5)o4)cc3)c3c[nH]c4ccc(Cl)cc34)c2c1", "values": [
      {"measurement": "IC50", "value": "Not Active"}
    ]},
    {"smiles": "Clc1ccc(-c2nnc(-c3ccc(C(c4c[nH]c5ccc(Cl)cc45)c4c[nH]c5ccc(Cl)cc45)cc3)o2)cc1", "values": [
      {"measurement": "IC50", "setting": "read-out: IC50", "value": 46.2, "unit": "µM"}
    ]},
    {"smiles": "Oc1cccc(-c2nnc(-c3ccc(C(c4c[nH]c5ccc(Cl)cc45)c4c[nH]c5ccc(Cl)cc45)cc3)o2)c1", "values": [
      {"measurement": "IC50", "setting": "read-out: IC50", "value": 53.5, "unit": "µM"}
    ]},
    {"smiles": "Clc1ccc2[nH]cc(C(c3ccc(-c4nnc(-c5ccccc5Cl)o4)cc3)c3c[nH]c4ccc(Cl)cc34)c2c1", "values": [
      {"measurement": "IC50", "setting": "read-out: IC50", "value": 29.3, "unit": "µM"}
    ]},
    {"smiles": "COc1ccc(-c2nnc(-c3ccc(C(c4c[nH]c5ccc(Cl)cc45)c4c[nH]c5ccc(Cl)cc45)cc3)o2)cc1O", "values": [
      {"measurement": "IC50", "setting": "read-out: IC50", "value": 33.5, "unit": "µM"}
    ]},
    {"smiles": "O=[N+]([O-])c1cccc(-c2nnc(-c3ccc(C(c4c[nH]c5ccc(Cl)cc45)c4c[nH]c5ccc(Cl)cc45)cc3)o2)c1", "values": [
      {"measurement": "IC50", "value": "Not Active"}
    ]},
    {"smiles": "COc1ccc(-c2nnc(-c3ccc(C(c4c[nH]c5ccc(Cl)cc45)c4c[nH]c5ccc(Cl)cc45)cc3)o2)c(O)c1", "values": [
      {"measurement": "IC50", "setting": "read-out: IC50", "value": 35.2, "unit": "µM"}
    ]},
    {"smiles": "Oc1ccc(O)c(-c2nnc(-c3ccc(C(c4c[nH]c5ccc(Cl)cc45)c4c[nH]c5ccc(Cl)cc45)cc3)o2)c1", "values": [
      {"measurement": "IC50", "setting": "read-out: IC50", "value": 6.1, "unit": "µM"}
    ]},
    {"smiles": "Oc1ccc(-c2nnc(-c3ccc(C(c4c[nH]c5ccc(Cl)cc45)c4c[nH]c5ccc(Cl)cc45)cc3)o2)c(O)c1", "values": [
      {"measurement": "IC50", "setting": "read-out: IC50", "value": 3.5, "unit": "µM"}
    ]},
    {"smiles": "Clc1cccc(-c2nnc(-c3ccc(C(c4c[nH]c5ccc(Cl)cc45)c4c[nH]c5ccc(Cl)cc45)cc3)o2)c1", "values": [
      {"measurement": "IC50", "setting": "read-out: IC50", "value": 54.6, "unit": "µM"}
    ]},
    {"smiles": "O=[N+]([O-])c1ccccc1-c1nnc(-c2ccc(C(c3c[nH]c4ccc(Cl)cc34)c3c[nH]c4ccc(Cl)cc34)cc2)o1", "values": [
      {"measurement": "IC50", "setting": "read-out: IC50", "value": 64.2, "unit": "µM"}
    ]}
  ]
}
